Experimental findings from PMC9952466, “Characterization of Antioxidant and α-Glucosidase Inhibitory Compounds of Cratoxylum formosum ssp. pruniflorum and Optimization of Extraction Condition” (Antioxidants, 2023) are described below.

Assay [1] is described as follows: antioxidant activity by DPPH radical scavenging. Conditions: for DPPH radical scavenging activity: at 50 μM; for antioxidant activity (in words): DPPH radical scavenging. As for the experimental part:
(§1) The inhibitory effect on α-glucosidase was measured using α-glucosidase from Saccharomyces cerevisiae (EC 3.2.1.20). A test sample was mixed with 80 μL enzyme buffer and 10 μL α-glucosidase and incubated for 15 min at 37 °C. Then, after the addition of 10 μL p-nitrophenyl α-D-glucopyranoside solution for enzyme reaction, the amount of p-nitrophenol that was cleaved by the enzyme was determined by measuring the absorbance at 405 nm in a 96-well microplate reader. Acarbose was used as a positive control. The antioxidant activity was evaluated by measuring the DPPH radical scavenging activity using ascorbic acid as a positive control.
A general note: The DPPH test is a chemical assay of radical scavenging.

In assay [2] the test system is α-glucosidase from Saccharomyces cerevisiae (EC 3.2.1.20). Description: α-glucosidase inhibitory effect (p-nitrophenyl α-D-glucopyranoside, absorbance 405 nm). It is filed as biochemical. As for the experimental part:
as §1

With `CC(C)=CCc1c(O)cc2oc3cc(O)c(O)c(CC=C(C)C)c3c(=O)c2c1O` [Compound 6, γ-mangostin], the “DPPH radical scavenging activity” value in assay [1] is on record as “more than 50%”.
In the case of `Oc1cc(O)c2c(c1)O[C@H](c1ccc(O)c(O)c1)[C@H](O)C2` [Compound 21, epicatechin], the “α-glucosidase inhibitory activity (in words)” value in assay [2] is given as “good inhibition”.
As for `O=c1c2cc(O)c(O)cc2oc2cc(O)c([C@@H]3O[C@H](CO)[C@@H](O)[C@H](O)[C@H]3O)c(O)c12` [Compound 18, mangiferin], in assay [1], the “DPPH radical scavenging activity” value is listed as “more than 50%”.
As to `O=C(c1ccccc1)c1cc(O)c(O)c(OC2OC(CO)C(O)C(O)C2O)c1` (stereo not drawn) [Compound 19, pruniflonone B], in assay [2], the “α-glucosidase inhibitory activity (in words)” value is given as “weak effect”. For the same molecule, the “antioxidant activity (in words)” value in assay [1] is “weak effect”.
Regarding `CC(C)=CCc1c(O)c(O)c(C/C=C(\C)CCCC(C)(C)O)c2oc3ccc(O)cc3c(=O)c12` [Compound 16, pruniflonone A], the “antioxidant activity (in words)” value in assay [1] was “weak efficacy”.
With `COc1cc2c(=O)c3c(O)c(O)c(O)cc3oc2cc1O` [Compound 17, caloxanthone E], the “DPPH radical scavenging activity” value in assay [1] is on record as “more than 50%”.
As for `CC(C)=CCc1c(O)c(O)cc2c(=O)c3c(O)cc(O)cc3oc12` [Compound 1, cochinchinone F], the “α-glucosidase inhibitory activity (in words)” value in assay [2] is recorded as “reduced the efficacy”.
isocudraniaxanthone B [Compound 3]: the “DPPH radical scavenging activity” value in assay [1] is given as “more than 50%”.
